Measurements published in publication PMC10058641 (Molecular cell, 2022).
Values belong to the molecule of their own block, whether it stands above or below them.

Assays:
COQ7 (His6-GB1-Nd38COQ7) = target: T1, COQ7 (His6-GB1-Nd38COQ7) (Homo sapiens, UniProt Q99807); test: NADH fluorescence loss; format: biochemical; details: 250 uM DMQ0, 5 uM protein, 20 mM HEPES pH 7.6, 200 mM NaCl, 30 °C
T1 sequence (Q99807 39-217): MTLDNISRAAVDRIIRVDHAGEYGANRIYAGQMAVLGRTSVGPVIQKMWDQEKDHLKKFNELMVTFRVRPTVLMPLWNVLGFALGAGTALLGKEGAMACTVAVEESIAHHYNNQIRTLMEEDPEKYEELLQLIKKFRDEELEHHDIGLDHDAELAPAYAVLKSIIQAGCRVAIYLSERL

[1] = target: T2, His6-Nd79COQ9 (human COQ9 residues 79-318 with an N-terminal His tag) (human, UniProt O75208 79-318); test: SEC + native gel or EMSA
T2 sequence (looked up): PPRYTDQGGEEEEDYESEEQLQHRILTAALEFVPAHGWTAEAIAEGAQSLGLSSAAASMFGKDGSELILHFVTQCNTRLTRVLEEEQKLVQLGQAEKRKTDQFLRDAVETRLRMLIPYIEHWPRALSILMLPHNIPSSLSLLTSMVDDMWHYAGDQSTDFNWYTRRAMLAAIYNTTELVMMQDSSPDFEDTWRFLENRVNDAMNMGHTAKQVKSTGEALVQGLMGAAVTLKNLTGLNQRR

Molecule: NC(=O)C1=CN([C@@H]2O[C@H](COP(=O)(O)OP(=O)(O)OC[C@H]3O[C@@H](n4cnc5c(N)ncnc54)[C@H](O)[C@@H]3O)[C@@H](O)[C@H]2O)C=CC1 [NADH]
NADH oxidation (COQ7 (His6-GB1-Nd38COQ7)): wild type COQ7 slowly oxidized NADH and transferred electrons to a quinone acceptor

stoichiometry N [1]: 1
B1: GB1-Nd38COQ7 (human COQ7 residues 39-217 with N-terminal GB1 tag) (enzyme, UniProt Q99807 39-217, looked up)
chain: T1 sequence (Q99807 39-217)
